Assay results published in US20140113964A1, “METHOD OF PREVENTING AND TREATING ALLERGIC AIRWAY DISEASES VIA INTRANASAL GABEXATE MESILATE” (priority 2012, published 2014).
Where a SMILES comes first, the peptide text is derived from it. [ ]: non-standard residue; d: D form. The star is where a group is joined. Sta = CC(C)C[C@H](N)[C@@H](O)CC(=O)O; Isovaleryl = CC(C)CC(=O)*

Legend:
[1] = tested on: protease activity of CraA; experiment: azocasein assay of the protease activity of CraA with protease inhibitors; assay type: biochemical, American cockroach; conditions: azocasein substrate, 37° C., 30 mins, absorbance at 440 nm; FIG. 1
Method: In brief, azocasein was used as a substrate to measure the protease activity of CraA. Twenty μL of CraA was added into 80 μL azocasein solution (0.5% (w/v), lysed in 100 mM phosphate buffer) and incubated in 37° C. water bath for 30 mins. Afterwards, 20 μL of 10% trichloroacetic acid was added to stop the reaction. Further, the mixture was centrifuged with 6000 g for 10 mins. Consequently, 50 μL of supernatant was mixed with 50 μL of NaOH (0.2N), and the absorbance was measure at 440 nm. Moreover, various protease inhibitors were applied to inhibit the protease activity of CraA, for instance, PMSF (serine protease), aprotinin (serine protease), pepstatin (aspartic acid protease), E-64 (cysteine protease) and EDTA (metalloprotease), so as to confirm the serine protease activity of CraA.
With reference to FIG. 1 for a schematic view of inhibition of protease activity of CraA in accordance with an embodiment of the present invention, the protease activity inhibition was shown after treatment of different kinds of […].

[2] = tested on: murine asthma model; conditions: intra-peritoneal injection; cited from earlier work
[3] = tested on: Beas2B cells; experiment: CraA-induced dissociation of Beas2B cells, bright field microscope; assay type: cell-based, Human; conditions: 36, 75, 150 or 300 μg/mL gabexate mesilate for 30 mins, then 5 μg/mL CraA; FIG. 6
Method: With reference to FIG. 2 is a schematic view of Beas2B cells treated with various doses of CraA in accordance with an embodiment of the present invention, 3×10^5 Beas2B cells were seeded in a 6-well plate and treated with 0, 5, 10, 20, 30 and 40 μg/mL of CraA, respectively. Afterwards, the cells were observed by the bright field microscope.

[4] = tested on: IL-8 and MCP-1 proteins; experiment: IL-8 and MCP-1 protein levels in Beas2B cells treated with CraA; assay type: cell-based, Human; conditions: pre-treatment 30 mins, then 5 μg/mL CraA, time courses; FIG. 8
Method: With reference to FIGS. 6-8 for a schematic view of protection effects of gabexate mesilate (GM) on Beas2B cells treated with CraA, a schematic view of chemokines detected by RT-PCR in Beas2B cells treated with CraA and gabexate mesilate and a quantification result of IL-8 and MCP-1 proteins in Beas2B cells treated with CraA and gabexate mesilate in accordance with an embodiment of the present invention, 3×10^5 Beas2B cells were seeded in a 6-well plate and subsequently treated with gabexate mesilate for 30 mins. Afterwards, the cells were further treated with 5 μg/mL of CraA. Consequently, the cells were either observed by bright field microscope and analyzed the gene expression and the protein level of the cytokines, such as IL-8, MCP-1, GM-CSF and CCL20, as mentioned above.

[5] = tested on: IL-8, MCP-1, GM-CSF and CCL20 genes; experiment: RT-PCR of chemokine genes (IL-8, MCP-1, GM-CSF, CCL20) in Beas2B cells treated with CraA; assay type: cell-based, Human; conditions: pre-treatment 30 mins, then 5 μg/mL CraA, increasing doses; FIG. 7
Method: Referring to FIG. 4, the mRNA levels of various cytokines in response to treatment of CraA was measured by RT-PCR. To be brief, 3×10^5 Beas2B cells were seeded in a 6-well plate and treated with 5 μg/mL of CraA for 1, 2, 3, 4, 5, 16 and 24 hrs, respectively. After the treatment, the cells were harvested by TRIzol (Invitrogen), and RNA of the cells was extracted. The extracted RNA was reverse-transcribed into cDNA by SuperScript polymerase (Invitrogen) according to the manufacturer's instruction. Moreover, IL-8, MCP-1, GM-CSF and CCL20 genes were amplified by RT-PCR and analyzed by 2% agarose gel. The expression levels of the above mentioned genes were normalized with the expression of β-actin.

[6] = tested on: Beas2B cells; experiment: cell viability of Beas2B cells, trypan blue staining and counting; assay type: cell-based, Human
Method: With reference to FIG. 5 for a schematic view of cell viability of Beas2B cells treated with gabexate mesilate (GM) in accordance with an embodiment of the present invention, 3×10^5 Beas2B cells were seeded in a 3.5-cm dish with subsequently starvation for 16 hrs. After treating the cells with gabexate mesilate of various concentrations for 24 hrs, the cells were stained with trypan blue and counted the numbers of total cells, dead cells and survived cells so as to convert the numbers into a viability of the cells.
Referring to FIG. 5, the IC50 of the cells to gabexate mesilate is 600 μg/mL, that is, the cell viability with respect to gabexate mesilate at concentration of 600 μg/mL is 50%. […] Accordingly, the pharmaceutical effective amount of the composition comprising gabexate mesilate may be between 1-600 μg/mL, preferably between 10-300 μg/mL.

CC(C)C[C@H](NC(=O)[C@H]1O[C@@H]1C(=O)O)C(=O)NCCCCN=C(N)N [E-64]
inhibition of the protease activity of CraA [1]: not significantly inhibited

O=C(O)CN(CCN(CC(=O)O)CC(=O)O)CC(=O)O [EDTA]
inhibition of the protease activity of CraA [1]: not significantly inhibited

O=S(=O)(F)Cc1ccccc1 [PMSF]
inhibition of the protease activity of CraA [1]: obviously inhibited

CCOC(=O)c1ccc(OC(=O)CCCCCN=C(N)N)cc1.CS(=O)(=O)O [gabexate mesilate]
allergen-induced airway inflammation and eosinophilia [2]: attenuates allergen-induced airway inflammation and eosinophilia | dissociation of Beas2B cells treated with CraA [3]: reverse the dissociation of the cells | protein levels of IL-8 and MCP-1 [4]: significantly decreased | expression of IL-8, MCP-1, GM-CSF and CCL20 genes induced by CraA [5]: obviously decreases the gene expression induced by CraA | survived cells ([6]; 1200 μg/mL, 24 hrs): no survived cells | IC50 of the cells to gabexate mesilate (cell viability) ([6]; Beas2B cells, 24 hrs treatment, trypan blue, FIG. 5): 600 µg/mL

CC(C)CC(=O)N[C@H](C(=O)N[C@H](C(=O)N[C@@H](CC(C)C)[C@@H](O)CC(=O)N[C@@H](C)C(=O)N[C@@H](CC(C)C)[C@@H](O)CC(=O)O)C(C)C)C(C)C [pepstatin] (Isovaleryl-VV[Sta]A[Sta]-OH)
inhibition of the protease activity of CraA [1]: not significantly inhibited

aprotinin
inhibition of the protease activity of CraA [1]: obviously inhibited
